In brackets after ≈: the same amount, converted by molar mass. Read-outs that look alike come from different tables or passages of the source.
Experiments:
[1] = Stability of intravenous solutions at pH 11.0 to 11.5 (high performance liquid chromatography); type: physicochemical; conditions: intravenous solution solubilized by trisodium phosphate
Description: The preferred composition of the present invention employs trisodium orthophosphate as the base for solubilization of BBM-928A. Solutions having concentrations of BBM-928A of from 1 to 5 mg per milliliter are readily prepared when 0.65 parts by weight of trisodium orthophosphate per part by weight of BBM-928A are employed. Such solutions have a pH within the range of 11.0 to 11.5. If an amount of the base is employed which is insufficient to provide a pH value of pH 11.0 the desired level of solubilization of the BBM-928A is not achieved. At pH values in excess of 11.5 decomposition through hydrolysis of the BBM-928A becomes so extensive as to result in loss of utility of the solutions. […] Such solutions should not be kept for longer periods but should be prepared extemporaneously prior to use. […]
The resulting bulk powder is then filled into glass vials at the rate of 16.5 mg. per vial (10 mg. BBM-928A), and the vials sealed by a proper closure to maintain the anhydrous sterile condition. […] Each vial is constituted for intravenous injection with the desired quantity of sterile water for injection in an amount of 2 ml. or more per vial (conc. up to 5 mg/ml. and preferably from 1 to 5 mg/ml. of BBM-928A). […]

[2] = Solubility in solvents and pharmaceutical vehicles; type: physicochemical
Description: Is thus evident that due to the hydrolytic sensitivity and insolubility of BBM-928A that a formidable pharmaceutical formulation problem is presented for the intravenous use thereof.
The disodium salt of BBM-928A has been prepared by dissolving BBM-928A in aqueous sodium hydroxide at pH 10.5, washing with chloroform, and lyophilizing the aqueous solution. Its solubility in water is 0.5 mg/ml. In the dry state disodium BBM-928A gradually decomposes to BBM-928B and BBM-928C at higher temperatures. The following Table exemplifies this:
Limited solubility in the following solvents was observed.
The preferred composition of the present invention employs trisodium orthophosphate as the base for solubilization of BBM-928A. Solutions having concentrations of BBM-928A of from 1 to 5 mg per milliliter are readily prepared when 0.65 parts by weight of trisodium orthophosphate per part by weight of BBM-928A are employed. Such solutions have a pH within the range of 11.0 to 11.5. If an amount of the base is employed which is insufficient to provide a pH value of pH 11.0 the desired level of solubilization of the BBM-928A is not achieved. At pH values in excess of 11.5 decomposition through hydrolysis of the BBM-928A becomes so extensive as to result in loss of utility of the solutions. […] Such solutions should not be kept for longer periods but should be prepared extemporaneously prior to use. Conventional aseptic techniques conforming to the criteria of both good laboratory practices and good manufacturing practices should be employed in preparing the compositions of the present invention.

[3] = chloroform and methylene chloride; cited from earlier work

COc1ccc2nc(C(=O)N[C@@H]3COC(=O)[C@H](C(C)(C)O)N(C)C(=O)CN(C)C(=O)CNC(=O)[C@@H]4[C@@H](OC(C)=O)CC=NN4C(=O)[C@H](NC(=O)c4nc5ccc(OC)cc5cc4O)COC(=O)[C@H](C(C)(C)O)N(C)C(=O)CN(C)C(=O)CNC(=O)[C@@H]4[C@@H](OC(C)=O)CC=NN4C3=O)c(O)cc2c1 [BBM-928A]
period of sufficient stability for use following preparation [1]: up to 4 hours | solubility ([2]; Aqueous L-arginine 10%, yellow solution with a slight haze): 1000 µg/mL (≈ 701 µM) | solubility ([2]; Ethyl lactate, slight haze): about 1 mg/ml | solubility ([2]; Ethyl levulinate, standing in contact with the solvent overnight): 500 µg/mL (≈ 350 µM) | solubility ([2]; Lactic acid U.S.P.): 1000 µg/mL (≈ 701 µM) | solubility in 22 commonly employed pharmaceutical vehicles ([2]; poloxamer polyols, benzyl alcohol, ethanol, fixed oils, propylene glycol, polyethylene glycol 400, urea, povidone, nicotinamide, dextrose solutions etc.): virtually insoluble | solubility [3]: readily soluble

Reference: patent US4416874A, “Injectable compositions of BBM-928A” (Bristol-Myers Company, priority 1982, dated 1983)
